Converted amounts (≈) assume the structure as drawn. Positions of bridges follow the written chain, without caps; N, C: chain ends. Residues, ends and D or L forms follow the SMILES beside them. No end group written: not given here.
Key:
[1] = tested on: E. coli; test: MIC of standard antibiotics against E. coli (BioSAXS comparison); assay type: cell-based, Escherichia coli; details: used at 3x MIC, 240 min incubation, for BioSAXS
Text: To discuss the obtained results in the context of conventional antibiotics, compared the peptides to three antibiotics, tigecycline (bacteriostatic activity by binding to the […] ribosomal subunit of the bacterial ribosome), chloramphenicol (bacteriostatic activity by binding to the […] ribosomal subunit of the bacterial ribosome), and rifampicin (bactericidal activity by inhibiting the DNA-dependent RNA polymerase activity), see Figure 5. […] As the antibiotics have slower kill kinetics than the AMPs, 240 min incubation time was used. […] The PCA values of Bac5-v291 and hyP7B5GK deviate strongly from the untreated controls and the standard antibiotics. The PCA values of peptides hyP7B5Cys and optP7 are nearest to chloramphenicol.

[2] = tested on: E. coli; assay type: cell-based, Escherichia coli
Text: (§1) A broth microdilution assay was applied to determine the minimum inhibitory concentrations (MIC) in MHb for both, using 5 × 10^5 CFU/ml (MICs in Table 1) and 10^8 CFU/ml (BioSAXS and electron microscopy, values in Table 2). A detailed description of the method can be found in the open-source publication by von Gundlach et al. (von Gundlach et al., 2019a).
Quite early on in our drug development process, we have selected optP7 over optP1 for a slightly better MIC against P. aeruginosa. Further investigations were performed with peptide optP7 only. Firstly, we investigated E. coli cells treated with optP7 by transmission electron microscopy (TEM) to get a better understanding of the mode of action/ultrastructural changes of the peptides on E. coli, see Figure 1. In order to achieve a sufficient number of bacteria to form a pellet, a bacterial concentration of 1 × 10^8 CFU/ml was used. […] The outer membrane of E. coli of the untreated sample appears thick and relatively smooth (Figure 1, arrow 1), whereas for the peptide treated one, it was damaged (Figure 1, arrow 2) and blebbing was visible (Figure 1, arrow 3), where lipopolysaccharides (LPS) form small vesicles and are shed from the cell. The inner membrane for both, the untreated control (Figure 1A, arrow 4), and the peptide treated E. coli (Figure 1, arrow 5) seemed to remain intact and no spillage of the cytosol content was observed. The DNA in untreated bacterial cells comprised dispersed fibrils in the cytoplasm, see Figure 1, dotted lines. The bacterial DNA is concentrated in a ‘DNA–plasm’ called the nucleoid ([Ohniwa et al., 2007]). The peptide optP7 creates an enlarged and spherical nucleoid, dotted line in Figure 1., typically seen in DNA-dependent RNA polymerase inhibitors and protein synthesis inhibitors. Compared to the untreated bacteria (Figure 1, arrow 6), the peptide treated ones show more pronounced granular substructures (Figure 1, arrow 7) in the cytosol could indicate aggregation of cytosolic proteins. These substructures were observed before using small AMPs ([Von Gundlach et al., 2016a], [2019]).
Small-angle X-ray scattering for biological samples (BioSAXS) on the P12 beamline can be used to measure ultrastructural changes within the bacteria in the range between 2 and 157 nm, from which we used the range from 20 to 120 nm for analysis of the bacteria after treatment with the antimicrobial peptides. […] The MICs for the selected peptides against E. coli at 1 × 10^8 CFU/ml were determined (Table 2). […] To quantify the subtle changes between the different treatments we used a PCA analysis using SciXMiner and the “Peptide Extension” tool ([Mikut, 2010]; [Mikut et al., 2017]) (Figure 4). […]

[3] = tested on: human red blood cells; assay type: cell-based; details: for HC50 (peptide concentration needed to induce haemolysis in human red blood cells at 50%): red cells of human, 1 h
Protocol: The protocol to determine the haemolytic activity of the peptides and HC50 values were described previously ([Grimsey et al., 2020]). Briefly, human blood was washed and diluted with PBS (4% v/v) and incubated with a pre-made dilution series of the peptides and incubated for 1 h at 37 C. The 100% haemolysis value was achieved by incubation with Triton X (1% final concentration). Haemoglobin was measured at 414 and 546 nm using an ELISA plate reader. HC50 values were determined using the Prism software (GraphPad).

[4] = tested on: Pseudomonas aeruginosa PAO1; assay type: cell-based
Text: (§2) In this project the following bacterial strains were used: 1) methicillin-resistant Staphylococcus aureus (S. aureus) HO 5096 0412 (a neonatal infection isolate, isolated in Ipswich, England in 2005, obtained from Jody Lindsay (St. George’s, University of London), 2) Escherichia coli (E. coli, UB1005, F-, LAM-, gyrA37, relA1, spoT1, metB1, LAMR) used solely for transmission electron microscopy, E. coli (ATCC 25922), 3) Pseudomonas aeruginosa PAO1 obtained from Dr Robert E.W. Hancock (Department of Microbiology and Immunology, University of British Columbia).
(§3) Mueller-Hinton broth (MHb) (Merck, Life Science UK Limited, Dorset, UK)) was prepared concurring to the manufacturer’s directions was used to grow the bacterial strains. Liquid bacterial cultures were incubated at 37°C for 18–20 h on a shaker, bacterial culture on solid media was incubated for 18–24 h at 37°C.
as §1

[5] = tested on: methicillin-resistant Staphylococcus aureus HO 5096 0412 (MRSA); assay type: cell-based; details: methicillin-resistant HO 5096 0412
Text: as §2, §3, §1

[6] = tested on: E. coli; assay type: cell-based, Escherichia coli; remark: listed apart in the source
Text: as §2, §3, §1

Row | Compound | MIC against E. coli (standard antibiotics) [1] [µg/mL] | MIC E. coli at 1 × 10^8 CFU/ml [2] [µM] | Therapeutic window HC50/MIC(MRSA) [3] | HC50 (peptide concentration needed to induce haemolysis in human red blood cells at 50%) [3] [µM] | MIC PA (P. aeruginosa) [4] [µM] | MIC MRSA [5] [µM] | MIC E. coli [6] [µM]
1 | O=C(N[C@H](CO)[C@H](O)c1ccc([N+](=O)[O-])cc1)C(Cl)Cl [chloramphenicol] | 8 | – | – | – | – | – | –
2 | CC[C@H](C)[C@H](NC(=O)[C@H](Cc1c[nH]c2ccccc12)NC(=O)[C@H](CCCNC(=N)N)NC(=O)[C@@H](NC(=O)[C@H](CCCNC(=N)N)NC(=O)[C@H](CCCNC(=N)N)NC(=O)[C@H](CCCCN)NC(=O)CNC(=O)[C@H](CCCCN)NC(=O)[C@@H]1CSSC[C@H](NC(=O)[C@H](CCCCN)NC(=O)CNC(=O)[C@H](CCCCN)NC(=O)[C@H](CCCNC(=N)N)NC(=O)[C@H](Cc2c[nH]c3ccccc23)NC(=O)[C@H](Cc2ccccc2)NC(=O)[C@@H]2CCCN2C(=O)[C@@H]2CCCN2C(=O)[C@H](CCCNC(=N)N)NC(=O)[C@@H](NC(=O)[C@@H]2CCCN2C(=O)[C@H](CCCNC(=N)N)NC(=O)[C@H](CCCNC(=N)N)NC(=O)[C@H](CCCNC(=N)N)NC(=O)[C@@H](NC(=O)[C@@H]2CCCN2C(=O)[C@H](CCCNC(=N)N)NC(=O)[C@H](CCCNC(=N)N)NC(=O)[C@H](Cc2c[nH]c3ccccc23)NC(=O)[C@@H](N)CCCNC(=N)N)[C@@H](C)CC)[C@@H](C)CC)C(=O)N[C@@H](CO)C(=O)N[C@@H](CO)C(=O)N1)C(C)C)C(=O)N[C@H](C(=O)N[C@@H](Cc1c[nH]c2ccccc12)C(N)=O)[C@@H](C)CC [hyP7B5Cys] (H-RWRRPIRRRPIRPPFWRKGKCSSCKGKRRVRWIIW-NH2; disulfide 21-24) | – | 4 | >102 | 102 | 2 (≈ 9.15 µg/mL) | 1 (≈ 4.57 µg/mL) | 0.6 (≈ 2.74 µg/mL)
3 | CO[C@H]1/C=C/O[C@@]2(C)Oc3c(C)c(O)c4c(O)c(c(/C=N/N5CCN(C)CC5)c(O)c4c3C2=O)NC(=O)/C(C)=C\C=C\[C@H](C)[C@H](O)[C@@H](C)[C@@H](O)[C@@H](C)[C@H](OC(C)=O)[C@@H]1C [rifampicin] | 15 | – | – | – | – | – | –
4 | CN(C)c1cc(NC(=O)CNC(C)(C)C)c(O)c2c1C[C@H]1C[C@H]3[C@H](N(C)C)C(O)=C(C(N)=O)C(=O)[C@@]3(O)C(O)=C1C2=O [tigecycline] | 4 | – | – | – | – | – | –
5 | KIILRIRWR-NH2 [optP1] | – | – | 137 | 205 | 6 | 1.5 | 1
6 | KIILRIRWRGGGVRKPPYLPRPRPRPL-NH2 [hyP1CoG1] | – | – | >62.8 | >157 | 1 | 2.5 | 1
7 | KRRVRWIIW-NH2 [optP7] | – | 14 | >32.5 | >195 | 3 | 6 | 1.5
8 | KRRVRWIIWGGGVRKPPYLPRPRPRPL-NH2 [hyP7CoG2] | – | – | >30.8 | >154 | 2.5 | 5 | 2.5
9 | RWRRPIRRRPIRPPFWR-NH2 [Bac5-v291] | – | 1.1 | >10.3 | >278 | 27 | 27 | 1.7
10 | RWRRPIRRRPIRPPFWRGGGKRRVRWIIW-NH2 [hyP7B5G] | – | – | 51 | 102 | 2 | 2 | 2
11 | RWRRPIRRRPIRPPFWRKGKGKGKRRVRWIIW-NH2 [hyP7B5GK] | – | 4 | >120 | >120 | 2 | 1 | 1
12 | RWRRPIRRRPIRPPFWRKKKKRRVRWIIW-NH2 [hyP7B5K] | – | – | 41 | 82 | 2 | 2 | 2
13 | VRKPPYLPRPRPRPL-NH2 [consP1] | – | – | – | >139 | >139 | >139 | 35
14 | VRKPPYLPRPRPRPLGGGKIILRIRWR-NH2 [hyP1CoG2] | – | – | >62.8 | >157 | 2.5 | 2.5 | 1
15 | VRKPPYLPRPRPRPLGGGKRRVRWIIW-NH2 [hyP7CoG1] | – | – | >30.8 | >154 | 5 | 5 | 1
